Measurements reported in patent publication EP0979818A1, “BENZOIC ACID COMPOUNDS AND MEDICINAL USE THEREOF” (YOSHITOMI PHARMACEUTICAL INDUSTRIES, LTD., priority 1997, dated 1998).
Like-named read-outs stand apart in the source and are kept apart here.

How the values were obtained:
[1] = target: isolated guinea pig ascending colon (Cavia porcellus, UniProt O70528); test: contraction of the isolated guinea pig ascending colon; assay type: cell-based
Method: Male Hartley guinea pig was killed by a blow, ascending colon was taken from it and longitudinal muscle was separated. About 3 cm longitudinal muscle segment was suspended in 10 ml of a Tyrode solution with the load of 1 g. Tyrode solution contained methysergide (1 µM) and granisetron (1 µM) to inhibit responses mediated by 5-HT1, 5-HT2 and 5-HT3 receptors. Tyrode solution was maintained at 37°C and ventilated with a mixed gas of O2 (95%) and CO2 (5%). The contraction was isotonically measured via isotonic transducer. After an equilibrium period of about 30 minutes, the contraction by methacholine (30 µM) was measured two times at 15 minute intervals. Twenty minutes later, Y-36912 was added into the bath and the contraction was measured in the presence of a solvent or 1-methyl-1H-indole-3-carboxylic acid · 1-(2-methylsulfonylaminoethyl)-pyperidin-4-ylmethyl ester (hereinafter to be referred to as GR113808, 10nM), which is 5-HT4 receptor antagonist. The time of pretreatment with the solvent or GR113808 was 10 minutes. To avoid tachyphylaxis, the contraction induced by one concentration per preparation was measured. The contraction in the presence of a solvent or GR113803 was measured using a preparation from the same animal. The contraction effect of Y-36912 was measured as a percentage of responses to the second contraction by methacholine. […]

[2] = evaluation of bioavailability in rats; assay type: in vivo; conditions: rat, po; female SD rats, 3 mg/kg i.v. and 30 mg/kg p.o., from plasma AUC
Method: Female SD rats (4 per group) were administered with 3 mg/kg (i.v.) and 30 mg/kg (p.o.) of Y-36912. The blood was taken with the passage of time, and the concentration of the drug in plasma was measured with high performance liquid chromatography. […] In the formula, AUC means area under the plasma concentration-time curve. (AUC by oral administration)/(AUC by intravenous administration)X(Dose of intravenous administration)/(Dose of oral administration)X 100(%) [formula]

mice = test: stimulation of defecation in mice; assay type: in vivo; conditions: for Number (of feces) / Wet weight (of feces): 2 hours, Mean ± S.E.; for Promotion(%) of number of feces / Promotion(%) of wet weight of feces: versus vehicle
Method: Male ICR mice were subcutaneously administered with Y-36912 after adaptation to experimental surroundings for thirty minutes. The number and wet weight of feces excreted in 2 hours from immediately after administration were measured.

dogs = test: promotion of postprandial gastrointestinal motility in dogs without anesthesia; assay type: in vivo; conditions: for Difference of motility index (g·min) Colon / Difference of motility index (g·min) Stomach: Mean ± S.E.; for minimal effective dose: Canis lupus familiaris, iv
Method: According to the method of Ito et al. [Journal of Smooth Muscle Research, vol. 13, pp. 33-43 (1976)], male and female adult mongrel dogs were subjected to laparotomy under pentobarbital anesthesia, and force transducer was sutured to the serous membrane of various sites of gastrointestinal tract in the direction of circular muscle. After about two weeks' recovery period, postprandial gastrointestinal motility was measured in vigilance. The results are shown in Table 3 as the difference in motility index (g·min) between before and after administration of Y-36912. Y-36912 was administered intravenously.

SD rats [3] = test: toxicity testing, repeated administration for 10 days in rats; assay type: in vivo; conditions: female and male SD rats, repeated 30 mg/kg for 10 days
guinea pig = test: promotion of transit in large intestine in guinea pig; assay type: in vivo; conditions: guinea pigs; for Ratio of transit in large intestine (%): Evans blue, 1 hour, Mean ± S.E.; for Promotion (%) of transit in large intestine: versus vehicle
Method: Male Hartley guinea pigs were subjected to laparotomy under ether anesthesia, and a silicone tube was inserted into the beginning of ascending colon and fixed there. The other end was passed under the skin to be exposed from the back and sutured. At day 5 postoperation, Y-36912 was administered orally and Evans blue solution was injected into the colon through the silicon tube. One hour later, the large intestine was removed, and the entire length of the large intestine and the length of the transit of the Evans blue solution were measured. Evans blue transit ratio relative to the entire length of the large intestine (100 %) was calculated.

SD rats [4] = test: toxicity testing, single oral dose in rats; assay type: in vivo; conditions: four female SD rats, 750 mg/kg
Method: There was no death when four female SD rats were administered orally with Y-36912 at a dose of 750 mg/kg.

rats = test: promotion of gastric emptying in rats; assay type: in vivo; conditions: for Number of pellets (remaining in stomach): female Wistar rats, 1 hour after pellets, Mean ± S.E.; for Promotion (%) of gastric emptying: versus vehicle
From the text: Barium pellets (ca. 1 mm diameter) coated with polystyrene was intragastrically administered to female Wistar rats. One hour later, stomach was removed, and the remaining pellets were counted. Y-36912 was orally administered one hour before administration of the pellets.

[5] = measurement of absorption by small intestine in rat; assay type: in vivo; conditions: small intestine loop, 5 mg/kg, male SD rats, intestinal loop, 5 mg/10 ml in 5% glucose, 10 ml/kg, read-out: absorption (absorption ratio by small intestine loop)
Method: Male SD rats (3 per group) fasted overnight were subjected to laparotomy under ether anesthesia, and the upper part of small intestine was ligated to form a loop (15-20 cm in length). The drug was dissolved in 5% glucose to the drug concentration of 5 mg/10 ml, and 10 ml/kg thereof was injected into the loop. At 2 hours from the drug injection, the loop was removed, washed with 100 ml of 0.1 N hydrochloric acid-methanol (3:7), and the drug concentration was determined by high performance liquid chromatography. The absorption ratio was calculated according to the following formula. The absorption of Y-36912 was 60.5±13.7 % (Injected amount of drug (mg) - drug concentration in loop (mg/ml) x 100 (ml))/(Injected amount of drug (mg))x 100(%) [formula]

5-HT4 receptor = target: T1, 5-HT4 receptor (Cavia porcellus, UniProt O70528); test: 5-HT4 receptor binding test; conditions: guinea pig striatum crude synapse membrane, [3H]GR113808 0.1 nM, 37°C; read-out: Affinity for receptor (Ki value, nM) 5-HT4
T1 construct: Crude synapse membrane sample was prepared from guinea pig striatum; from tissue; host or cells: guinea pig striatum, crude synaptic membranes
Method: According to the method of C.J. Grossman et al. [British Journal of Pharmacology, vol. 109, pp. 618-624 (1993)1, a 5-HT4 receptor binding test was run using, as a tracer ligand, 1-methyl-1H-indole-3-carboxylic acid · 1-(2-methylsulfonylaminoethyl)-piperidin-4-ylmethyl ester substituted by tritium (hereinafter to be referred to as [^3H]GR113808). Crude synapse membrane sample was prepared from guinea pig striatum, suspended in 50 mM HEPES buffer (pH 7.4) and used for testing. Y-36912 having several different concentrations and [^3H]GR113808 (final concentration 0.1 nM) were added to this suspension and allowed to react at 37°C. Thirty minutes later, the reaction mixture was filtered by suction with cell harvester. The filter was washed with 50 mM HEPES buffer, and the radioactivity on the filter was counted by liquid scintillation counter. The non-specific binding was determined in the presence of 1µM GR113808. The concentration of Y-36912 necessary for 50% inhibition (IC50) was determined from graph and convened to binding inhibition constant (Ki value).

5-HT3 receptor = target: T2, 5-HT3 receptor (Rattus norvegicus, UniProt P35563); test: 5-HT3 receptor binding test; conditions: rat cerebral cortex crude synapse membrane, [3H]granisetron 1.0 nM, 25°C; value marked * is IC50, not Ki; read-out: Affinity for receptor 5-HT3 (* shows IC50)
T2 construct: Crude synapse membrane sample was prepared from rat cerebral cortex; from tissue; host or cells: rat cerebral cortex, crude synaptic membranes
T2 sequence (P35563 24-483): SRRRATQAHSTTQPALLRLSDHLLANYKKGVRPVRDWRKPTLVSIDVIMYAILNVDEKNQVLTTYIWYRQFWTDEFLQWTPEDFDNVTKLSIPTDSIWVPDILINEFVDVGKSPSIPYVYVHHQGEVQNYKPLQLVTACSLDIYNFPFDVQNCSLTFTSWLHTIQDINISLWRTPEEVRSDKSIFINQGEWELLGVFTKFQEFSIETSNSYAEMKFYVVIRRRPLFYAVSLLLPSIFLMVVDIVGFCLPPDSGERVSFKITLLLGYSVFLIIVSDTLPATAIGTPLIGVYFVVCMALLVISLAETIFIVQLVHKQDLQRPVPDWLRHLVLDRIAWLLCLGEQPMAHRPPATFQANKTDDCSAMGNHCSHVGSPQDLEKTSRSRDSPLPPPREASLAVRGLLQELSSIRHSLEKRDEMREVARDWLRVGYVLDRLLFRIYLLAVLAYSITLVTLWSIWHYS
Method: According to the method of Nelson and Thomas [Biochemical Pharmacology, vol. 38, pp. 1693-1695 (1989)], a 5-HT3 receptor binding test was run using, as a tracer ligand, endo-1-methyl-N-(9-methyl-9-azabicyclo[3.3.1]non-3-yl)-1H-indazole-3-carboxamide substituted by tritium (hereinafter to be referred to as [^3H]granisetron). Crude synapse membrane sample was prepared from rat cerebral cortex, suspended in 50 mM HEPES buffer (pH 7.4) and used for testing. Y-36912 having several different concentrations and [^3H]granisetron (final concentration 1.0 nM) were added to this suspension and allowed to react at 25°C. Thirty minutes later, the reaction mixture was filtered by suction with cell harvester. The filter was washed with 50 mM Tris buffer (pH 7.4), and the radioactivity on the filter was counted using liquid scintillation counter or β-plate. The non-specific binding was determined in the presence of 1 µM tropisetron. The concentration of Y-36912 necessary for 50% inhibition (IC50) was determined from graph and converted to binding inhibition constant (Ki value).

Sequence of isolated guinea pig ascending colon (O70528 whole entry): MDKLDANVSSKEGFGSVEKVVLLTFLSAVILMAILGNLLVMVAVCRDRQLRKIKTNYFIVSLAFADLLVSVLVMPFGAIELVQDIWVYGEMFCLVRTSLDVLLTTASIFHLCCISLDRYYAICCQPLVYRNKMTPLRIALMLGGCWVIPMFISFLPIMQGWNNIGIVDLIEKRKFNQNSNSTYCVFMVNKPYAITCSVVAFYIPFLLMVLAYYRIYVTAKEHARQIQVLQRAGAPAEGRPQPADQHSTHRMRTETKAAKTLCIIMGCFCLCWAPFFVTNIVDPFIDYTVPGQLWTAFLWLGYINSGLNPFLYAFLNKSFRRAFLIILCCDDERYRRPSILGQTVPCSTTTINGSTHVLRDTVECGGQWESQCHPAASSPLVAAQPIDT
T1 sequence (O70528 whole entry): as above

With `Cn1cc(C(=O)OCC2CCN(CCNS(C)(=O)=O)CC2)c2ccccc21` [GR113808, 1-methyl-1H-indole-3-carboxylic acid · 1-(2-methylsulfonylaminoethyl)-pyperidin-4-ylmethyl ester, reference compound] the “pKB, antagonism of GR113808 to contraction of Y-36912” value ([1]; GR113808 10 nM, 10 minutes pretreatment, agonist Y-36912) was 8.8.

In the case of `COc1cc(N)c(Cl)cc1C(=O)NCC1CCN(CCCS(=O)(=O)Cc2ccccc2)CC1` [Y-36912, 4-amino-5-chloro-2-methoxy-N-((1-(3-benzylsulfonylpropyl)piperidin-4-yl)methyl)benzamide], the bioavailability [2] is reported as 85.2%, the “Number (of feces)” value (mice; 0.03 mg/kg s.c) is reported as 5.4 ± 0.7 and the “Wet weight (of feces)” value (mice; 0.03 mg/kg s.c) is reported as 78.2 ± 8.6. The “Promotion(%) of number of feces” value (mice; 0.03 mg/kg s.c) was 59%, the “Promotion(%) of wet weight of feces” value (mice; 0.03 mg/kg s.c) was 38% and the “Number (of feces)” value (mice; 0.1 mg/kg s.c) was 6.5 ± 0.8. The “Wet weight (of feces)” value (mice; 0.1 mg/kg s.c) was 95.7 ± 10.6, the “Promotion(%) of number of feces” value (mice; 0.1 mg/kg s.c) was 91% and the “Promotion(%) of wet weight of feces” value (mice; 0.1 mg/kg s.c) was 69%. For the same compound, the “Number (of feces)” value (mice; 0.3 mg/kg s.c) was 6.2 ± 0.8, the “Wet weight (of feces)” value (mice; 0.3 mg/kg s.c) was 94.7 ± 10.3 and the “Promotion(%) of number of feces” value (mice; 0.3 mg/kg s.c) was 82%. For the same compound, the “Promotion(%) of wet weight of feces” value (mice; 0.3 mg/kg s.c) was 68%, the “Number (of feces)” value (mice; 1 mg/kg s.c) was 5.4 ± 0.5 and the “Wet weight (of feces)” value (mice; 1 mg/kg s.c) was 97.7 ± 12.5. For the same compound, the “Promotion(%) of number of feces” value (mice; 1 mg/kg s.c) was 59%, the “Promotion(%) of wet weight of feces” value (mice; 1 mg/kg s.c) was 73% and the minimal effective dose (mice; Mus musculus, sc, 2 h, s.c., read-out: dose showing significant promotion of defecation) was no less than 0.1 mg/kg. The “Difference of motility index (g·min) Colon” value (dogs; 0.01 mg/kg i.v.) was 27.1 ± 6.8 g·min, the “Difference of motility index (g·min) Stomach” value (dogs; 0.01 mg/kg i.v.) was 41.3 ± 35.4 g·min and the “Difference of motility index (g·min) Colon” value (dogs; 0.03 mg/kg i.v.) was 28.3 ± 8.5 g·min. For the same compound, the “Difference of motility index (g·min) Stomach” value (dogs; 0.03 mg/kg i.v.) was 65.1 ± 38.1 g·min, the “Difference of motility index (g·min) Colon” value (dogs; 0.1 mg/kg i.v.) was 58.2 ± 11.9 g·min and the “Difference of motility index (g·min) Stomach” value (dogs; 0.1 mg/kg i.v.) was 60.5 ± 18.1 g·min. The minimal effective dose (dogs; read-out: dose that increased colonic (lower gastrointestinal) motility) was 0.1 mg/kg, the minimal effective dose (dogs; read-out: dose that increased gastric (upper gastrointestinal) motility) was no less than 0.03 mg/kg and the death (SD rats [3]) was “no animal died”. The “Ratio of transit in large intestine (%)” value (guinea pig; 0.1 mg/kg p.o.) was 57.0 ± 7.0%, the “Promotion (%) of transit in large intestine” value (shortened to “Promotion (%) of transit”) (guinea pig; 0.1 mg/kg p.o.) was 9% and the “Ratio of transit in large intestine (%)” value (guinea pig; 0.3 mg/kg p.o.) was 70.9 ± 7.9%. The “Promotion (%) of transit” value (guinea pig; 0.3 mg/kg p.o.) was 35%, the “Ratio of transit in large intestine (%)” value (guinea pig; 1 mg/kg p.o.) was 77.2 ± 6.4 % and the “Promotion (%) of transit” value (guinea pig; 1 mg/kg p.o.) was 47%. The “Ratio of transit in large intestine (%)” value (guinea pig; 3 mg/kg p.o.) was 80.1 ± 5.8 %, the “Promotion (%) of transit” value (guinea pig; 3 mg/kg p.o.) was 53% and the minimal effective dose (guinea pig; Cavia porcellus, po, 1 h, p.o., read-out: dose that significantly accelerated transit in large intestine) was no less than 1 mg/kg. The death (SD rats [4]) was “no death”, the “Number of pellets (remaining in stomach)” value (rats; 0.1 mg/kg p.o.) was 21.1 ± 2.8 and the “Promotion (%) of gastric emptying” value (rats; 0.1 mg/kg p.o., rats) was 25%. For the same compound, the “Number of pellets (remaining in stomach)” value (rats; 0.3 mg/kg p.o.) was 18.8 ± 3.0, the “Promotion (%) of gastric emptying” value (rats; 0.3 mg/kg p.o., rats) was 33% and the “Number of pellets (remaining in stomach)” value (rats; 1 mg/kg p.o.) was 19.5 ± 3.1. The “Promotion (%) of gastric emptying” value (rats; 1 mg/kg p.o., rats) was 31%, the “Number of pellets (remaining in stomach)” value (rats; 3 mg/kg p.o.) was 13.4 ± 1.8 and the “Promotion (%) of gastric emptying” value (rats; 3 mg/kg p.o., rats) was 52%. For the same compound, the “effect on gastric emptying” value (rats; doses of 0.3 mg/kg and 3 mg/kg p.o., rats) was “significantly accelerated gastric emptying”, the Fa at 2 h [5] was 60.5 ± 13.7% and the Ki (5-HT4 receptor) was 1.5 nM. For the same compound, the EC50 ([1]; longitudinal muscle, methysergide 1 µM and granisetron 1 µM present, relative to methacholine 30 µM contraction, read-out: Contraction effect on the isolated ascending colon (EC50 value)) was 10.8 nM and the IC50 (5-HT3 receptor) was greater than 1000 nM.
